The text below walks through data of patent US20060003382A1, “Compositions and methods for analyte detection” (priority 2004, published 2006).

In assay [1] the target is T1, avidin (Gallus gallus, UniProt P02701). The conditions noted are these: non-covalent protein-small molecule interaction; cited from earlier work.
The next assay concerns the target T2, egg white avidin (Gallus gallus, UniProt P02701).
T2 construct: Egg white avidin (Molecular Probes); purchased Molecular Probes; host or cells: egg white
As to the kind of experiment: Cyclic / square wave voltammetry of the complexes before and after addition of avidin. The conditions noted are these: for current signal after addition of biotin to the avidin-bound complex (displacement): 25 equiv (25-fold excess) of biotin; for current signal of the redox couple upon addition of avidin: CV, glassy carbon electrode. The assay is classed as binding. On the procedure:
All operations involving Ru were carried out under argon according to standard Schlenk techniques. [(H2O)Ru(NH3)5]^2+ was either generated and isolated as the PF6^− salt according to the literature procedure and then used or the or Cl^− salt was used directly (See, e.g., Callahan et al., Inorg. Chem. 1975, 14, 1443-1453). Electrochemical experiments were carried out using a CH Instruments 660A workstation, a glassy carbon working electrode, a Ag/AgCl reference electrode and a platinum wire counter electrode.
A solution of [(4-BMP)Ru(NH3)5](PF6)2 in pH 9.3 phosphate buffer was prepared and the cyclic voltammogram obtained.
A solution of 1.0 mg [(4-DMP)Ru(NH3)5](PF6)2 in 4.2 mL 0.5M NaCl in H2O was prepared and the cyclic voltammogram obtained. […] To this was added 26 mg avidin, the CV obtained, and then 0.25 mL of a solution of methyl viologen (10 mg/5 mL; 7.77×10^−3M) was added and the CV remeasured.
A 19 mg portion of avidin was added, the CV and square wave voltammograms were recorded.
A 4.8×10^−5 M solution (0.75 mg) of [(4-DPEP)Ru(NH3)5](PF6)2 in pH 7.18 phosphate buffer was prepared and the cyclic voltammogram obtained.
The electrochemical experiments were performed in phosphate buffer at pH 9.3, 8.1, and 7.3, in 0.5M NaCl solution, and in pH 7.3 HEPES buffer.

Assay [2] deals with T1, avidin. The experiment in a line: Oxidation by [Ru(NH3)6]^3+, decrease of UV-visible absorption at 410 nm over time, free vs avidin-bound. The conditions noted are these: oxidant [Ru(NH3)6]^3+. On the procedure: In the case of [(4-DPEP)Ru(NH3)5]^2+ the oxidant [Ru(NH3)6]^3+ was added and the decrease of the UV-visible absorption at 410 nm was monitored over time.

T2 sequence (P02701 25-152): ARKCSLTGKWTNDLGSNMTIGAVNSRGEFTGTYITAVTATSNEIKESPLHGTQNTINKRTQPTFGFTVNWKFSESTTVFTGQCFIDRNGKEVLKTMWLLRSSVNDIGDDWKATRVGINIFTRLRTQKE
T1 sequence (P02701 25-152): as above

For `C[C@@H]1NC(=O)N[C@@H]1CCCCCC(=O)O` [desthiobiotin], the “kd of binding to avidin” value on avidin [1] is given as “only slightly lower than that of biotin-avidin”.

On to “[(4-DMP)RU(NH3)5][PF6]2 [[(4-DMP)Ru(NH3)5]^2+]”, for which, on egg white avidin, the “current signal after addition of biotin to the avidin-bound complex (displacement)” value is recorded as “increased nearly to the original level” and the “current signal of the redox couple upon addition of avidin” value is reported as “decreased”. The “current signal after addition of biotin to the avidin-bound complex (displacement)” value at egg white avidin (listed as [(4-DMP)Ru(NH3)5](PF6)2) was “the signal was regenerated”. On egg white avidin (avidin present, mediators 4,4′-bipyridine and methyl viologen), the “effect of added electrochemical mediators on the current signal of the Ru couple” value is “no effect on the current signal”.

For “[(4-DPEP)Ru(NH3)5][PF6]2 [[(4-DPEP)Ru(NH3)5]^2+]”, the “rate of oxidation, avidin-bound versus free complex” value at avidin [2] is “qualitatively slower”. The “current signal of the redox couple upon addition of avidin” value at egg white avidin is reported as “decreased the signal”; on egg white avidin (listed as [(4-DPEP)Ru(NH3)5](PF6)2) it was “disappeared upon addition of avidin”.
